# Reference: the supplement of paper PMC10307832
# How the values were obtained:
# Experiment in all cases: relative viability (nuclei count vs DMSO), 5 days (fraction); higher = more cells survive
# [1] = compound: CCN1C(=O)C2=CC(=C(N=C2N(C1=O)C3CC3)N)C(=O)N
# Procedure, shortened: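 Viability here means nuclei in treated wells divided by nuclei in vehicle wells, reported as the median across plates. Only plates with control CV below 25% and at least one doubling passed. Lung cancer cell lines in 1536-well plates were exposed to five √10-spaced library-drug doses for 5 days and counted from 4× Hoechst images in MetaXpress.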
# [2] = compound: CCN1C(=O)C2=CC(=C(N=C2N(C1=O)C3CC3)N)C(=O)N + CC1(C)CCC(c2ccc(Cl)cc2)=C(CN2CCN(c3ccc(C(=O)NS(=O)(=O)c4ccc(N[C@H](CCN5CCOCC5)CSc5ccccc5)c(S(=O)(=O)C(F)(F)F)c4)cc3)CC2)C1 [Navitoclax] (partner 0.5 µM)
# Procedure, shortened: (§1)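 Nuclei were stained with Hoechst during a one-step fixation (final 0.05% Triton X-100, 1% formaldehyde, 1 ug/ml Hoechst) carried out 5 days after dosing, then counted on 4× images. The cells, lung cancer lines in 1536-well plates, had been dosed by pin tool the day after seeding with one drug alone or a fixed anchor-drug dose plus five library-drug doses (not always all listed) in √10 steps. Relative viability is the nuclei count in treated wells divided by that in vehicle wells, and each value is the median of duplicate plates.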
# [3] = compound: CCN1C(=O)C2=CC(=C(N=C2N(C1=O)C3CC3)N)C(=O)N + COc1cccc2cc(-c3nc([C@H]4CC[C@H](C(=O)O)CC4)n4ncnc(N)c34)[nH]c12 [OSI-027] (partner 0.5 µM)
# Procedure, shortened: as §1
# [4] = compound: CCN1C(=O)C2=CC(=C(N=C2N(C1=O)C3CC3)N)C(=O)N + CS(=O)(=O)N1CCN(Cc2cc3nc(-c4cccc5[nH]ncc45)nc(N4CCOCC4)c3s2)CC1 [Pictilisib] (partner 1 µM)
# Procedure, shortened: as §1
# [5] = compound: CCN1C(=O)C2=CC(=C(N=C2N(C1=O)C3CC3)N)C(=O)N + Nc1ncn([C@H]2C[C@H](O)[C@@H](CO)O2)c(=O)n1 [Decitabine] (partner 2 µM)
# Procedure, shortened: as §1
Cell Line,relative viability ([1]; 0.253 µM),relative viability ([1]; 0.8 µM),relative viability ([1]; 2.53 µM),relative viability ([1]; 8 µM),relative viability ([2]; first compound 0.253 µM),relative viability ([2]; first compound 0.8 µM),relative viability ([2]; first compound 2.53 µM),relative viability ([2]; first compound 8 µM),relative viability ([3]; first compound 0.253 µM),relative viability ([3]; first compound 0.8 µM),relative viability ([3]; first compound 2.53 µM),relative viability ([3]; first compound 8 µM),relative viability ([4]; first compound 0.253 µM),relative viability ([4]; first compound 0.8 µM),relative viability ([4]; first compound 2.53 µM),relative viability ([4]; first compound 8 µM),relative viability ([5]; first compound 0.253 µM),relative viability ([5]; first compound 0.8 µM),relative viability ([5]; first compound 2.53 µM),relative viability ([5]; first compound 8 µM)
201T,0.993,0.948,1.04,0.964,1.26,1.21,1.14,1.22,0.431,0.729,0.761,0.667,0.688,0.621,0.722,0.635,0.866,0.81,0.814,0.844
A-427,1.02,0.991,1.03,1.03,0.994,0.965,0.95,0.98,0.46,0.487,0.49,0.466,0.724,0.578,0.645,0.727,0.552,0.537,0.521,0.563
ABC-1,0.986,0.686,1,0.841,–,–,–,–,0.438,0.474,0.538,0.469,0.761,0.667,0.82,0.699,0.996,–,1.17,1.05
BEN,0.952,0.885,1.11,1.02,0.074,0.0565,0.0783,0.0841,0.297,0.321,0.273,0.295,0.539,0.522,0.62,0.519,0.814,0.675,0.734,0.657
CAL-12T,1,0.964,1.02,1.02,1.14,1.1,1.06,1.2,0.689,0.478,0.543,0.512,0.431,–,0.437,0.541,–,–,–,–
COR-L23,1.01,0.962,1.04,1.12,1.05,0.939,1.03,1.04,0.883,0.819,0.743,0.867,0.814,0.751,0.729,0.947,0.442,0.467,0.428,0.375
COR-L 105,0.979,0.841,0.875,0.963,0.847,0.74,0.586,0.794,0.873,0.729,0.634,0.651,0.453,0.366,0.412,0.369,0.712,0.657,0.597,0.785
ChaGo-K-1,1.12,0.949,0.973,0.924,1.05,0.782,1.11,0.958,0.516,0.518,0.683,0.502,0.916,0.563,0.91,0.766,0.529,0.555,0.489,0.449
EKVX,1.01,0.955,0.959,0.913,0.929,0.897,0.952,0.989,0.803,0.751,0.675,0.498,0.439,0.411,0.388,0.438,0.352,0.33,0.352,0.296
EMC-BAC-2,1.39,–,1.14,1.07,1.2,1.17,1.18,1.32,0.474,0.336,0.33,0.379,0.642,0.536,0.456,0.584,1.05,–,0.89,0.94
EPLC-272H,0.891,0.863,0.999,1.09,0.994,1.26,1.13,1.2,0.277,0.258,0.266,0.277,0.296,0.288,0.389,0.333,0.362,0.376,0.399,0.379
H3255,0.995,0.906,1.01,0.929,0.625,0.509,0.617,0.559,0.57,0.57,0.577,0.994,0.509,0.47,0.504,0.513,0.582,0.582,0.61,0.604
HARA,0.975,0.927,0.947,0.918,1.15,1.13,1.08,1.12,0.415,0.576,0.473,0.54,0.403,0.36,0.379,0.486,0.473,0.587,0.402,0.721
HCC-15,0.943,1.02,0.994,1.03,0.692,0.753,0.683,0.69,0.648,0.72,0.685,0.663,0.699,0.79,0.793,0.801,0.596,0.663,0.624,0.603
HCC-44,1.01,0.958,1.03,0.972,1.04,0.994,0.985,1.02,0.568,0.446,0.527,0.421,0.599,0.6,0.564,0.641,0.999,0.999,0.885,0.872
HCC-78,0.947,0.939,1.04,0.994,0.436,0.788,0.691,0.94,0.434,–,0.354,0.387,0.223,0.173,0.201,0.205,0.681,0.636,0.726,0.639
HCC-366,0.981,0.968,0.996,1.03,0.985,0.991,1.1,1.05,–,0.938,0.877,0.743,0.168,0.162,0.0835,0.11,0.294,0.346,0.341,0.284

Cell Line,relative viability ([1]; 0.253 µM),relative viability ([1]; 0.8 µM),relative viability ([1]; 2.53 µM),relative viability ([1]; 8 µM),relative viability ([2]; first compound 0.253 µM),relative viability ([2]; first compound 0.8 µM),relative viability ([2]; first compound 2.53 µM),relative viability ([2]; first compound 8 µM),relative viability ([3]; first compound 0.253 µM),relative viability ([3]; first compound 0.8 µM),relative viability ([3]; first compound 2.53 µM),relative viability ([3]; first compound 8 µM),relative viability ([4]; first compound 0.253 µM),relative viability ([4]; first compound 0.8 µM),relative viability ([4]; first compound 2.53 µM),relative viability ([4]; first compound 8 µM),relative viability ([5]; first compound 0.253 µM),relative viability ([5]; first compound 0.8 µM),relative viability ([5]; first compound 2.53 µM),relative viability ([5]; first compound 8 µM)
HCC-827,1.1,1.02,1.03,1.01,1,1.01,0.98,0.954,0.778,0.771,0.793,0.794,0.954,1.08,1.16,1.03,0.342,0.284,0.332,0.319
HOP-62,1.01,1.03,1,1.03,1.08,1.11,0.969,0.924,0.96,0.919,0.795,0.883,1.01,0.883,0.413,0.804,0.242,0.218,0.161,0.184
IA-LM,0.952,0.75,0.877,0.825,0.815,0.583,0.768,0.791,–,–,–,–,0.358,0.356,0.343,0.339,–,–,–,–
LC-2-ad,0.915,0.937,1,0.977,0.416,0.45,0.462,0.518,0.693,0.808,0.759,0.829,0.465,0.409,0.514,0.506,0.765,0.735,0.681,0.777
LCLC-97TM1,0.936,0.792,0.977,0.879,0.431,–,–,0.53,0.466,0.371,0.441,0.56,0.203,–,–,0.223,0.207,0.225,0.244,0.262
LCLC-103H,1.02,0.928,0.924,0.999,–,–,–,–,0.411,0.475,0.49,0.399,0.57,0.581,0.501,0.582,0.723,0.699,0.753,0.702
LK-2,0.979,0.981,1.03,1.04,0.934,0.937,0.976,1.06,0.19,0.196,0.181,0.2,0.547,0.507,0.525,0.556,0.249,0.31,0.317,0.277
LOU-NH91,0.838,0.921,0.996,0.944,0.656,0.68,0.701,0.689,0.637,0.66,0.766,0.692,0.509,0.516,0.541,0.538,0.849,0.781,0.768,0.798
LU99A,0.856,0.997,0.904,0.984,0.778,0.741,0.747,0.875,0.34,0.294,0.284,0.288,0.305,0.332,0.303,0.363,0.765,0.952,0.873,0.828
LXF-289,1.01,1.07,0.972,1.01,0.93,0.951,1.01,0.95,0.827,0.864,0.815,0.793,0.831,0.85,0.819,0.775,0.345,0.37,0.346,0.336
NCI-H358,1.05,0.913,0.924,0.954,–,–,–,–,0.85,0.818,0.779,0.814,0.4,0.343,0.284,0.424,0.193,0.207,0.19,0.227
NCI-H522,0.876,0.985,0.983,0.906,–,–,–,–,0.715,0.623,0.647,0.722,–,–,–,–,0.56,0.73,0.748,0.723
NCI-H650,0.955,0.916,0.962,0.849,–,–,–,–,0.527,0.46,0.516,0.457,0.997,0.922,0.684,0.893,0.331,0.325,0.329,0.283
NCI-H661,1.03,0.991,0.972,0.961,–,–,–,–,0.773,0.742,0.681,0.677,0.401,0.368,0.45,0.395,0.544,0.551,0.517,0.543
NCI-H1703,0.953,0.871,0.886,1.07,1.01,1.04,1.14,1.46,–,–,–,–,0.243,0.224,0.275,0.269,–,–,–,–
NCI-H2228,0.99,1.01,0.902,0.965,0.996,1.29,0.925,0.838,0.557,0.674,0.633,0.645,0.393,0.368,0.353,0.4,–,–,–,–
SW 900,0.672,0.717,0.785,0.786,–,–,–,–,0.568,0.531,0.475,0.731,–,–,–,–,0.347,0.511,0.49,0.443
